Experimental findings from patent US20030175438A1, “Treatments of solid substrates to enhance durability of treatments placed thereon” (priority 2002, published 2003) are described below.

This data set can be described thus: Bromphenol Blue (BPB) Extraction Method, spectrophotometric at 595 nm (modified CTM 0824), on treated fabric. To be noted: for Strike Rate - % BPB Extraction: No Boil, Table XIII. The class given is physicochemical. Here is the method: Sample Preparation: Fabric samples were obtained from the JoAnn fabric chain and were commercial fabrics. The fabrics were cut into rectangular size and were about 1½ inches by 2 inches, and were treated in 0.15 weight percent active antimicrobial agent placed in an Erlenmeyer flask. The agent used in this example was N, N-dimethyl-N-Octadecyl-3-(trimethoxysilyl)propanaminium chloride. The treatment solutions were allowed to hydrolyze from the trimethoxysilyl form to the trisilanol form before adding the fabrics. This takes only a few minutes to essentially complete. The solution temperature was raised to 100° C. before treating the fabrics for 60 seconds by immersion in the solutions with moderate agitation of the solution within the flask. After removing the samples from the hot solution, they were nip rolled to remove excess liquid. Wet Weight Pickup (WWP) was targeted to 100%. The samples were air dried before testing unless otherwise noted. The Extraction, stated in percent, was measured using the Bromphenol Blue Extraction Method using spectrophotometric determination. This method is CTM 0824, which has been modified for use herein in the following manner. The chlorinated solvent has been eliminated and the wavelength is 595 nm. Further, Dow Corning® A521 has been substituted for the Triton.RTM. X-100 wetting agent of the test. What is measured is the diminution of the BPB Absorbance at 595 nm relative to the BPB standard solution and it is reported in percent Extraction. Antimicrobial efficacy was determined using the CTM-0923 Dynamic Shake Flask Test unless otherwise stated.
The antimicrobial agent used in this example was the same as that used in example 1. The samples were handled the same as in example 1 with the exception of the following. Samples were air and/or oven dried before testing. The % Extraction was measured using the BPB Extraction Method using spectrophotometric determination at 595 nm. If determined, antimicrobial efficacy was determined using the CTM-0923 Dynamic Shake Flask Test. Co-treatments the addition of the fabric to a 0.20 molar solution of the anion plus 0.15 WPA antimicrobial agent. The co-treatment is carried out at 100° C., and the fabric was moderately agitated for 60 seconds. The antimicrobial treatment is the addition of the fabric to a solution of 0.15 WPA antimicrobial agent held at 100° C. with moderate agitation for 60 seconds. Excess solution is removed from the samples, and the WWP is determined by weighing. Boiling was done with 200 milliliters of distilled water in a glass container in a microwave oven. Power setting was 30%, and the solution was gently boiled for 30 minutes. Sample size was nominally 1 gram and fresh water was used for each boiling study. The testing results can be found on Table XIII to XIV, respectively, infra. To differentiate between the application rate of the antimicrobial on the fabric, 25% of the normal sample size, or 0.25 grams of fabric was used to obtain the BPB Extraction values that ranged between 5 and 99%. This yielded values of percent BPB extraction that were in the linear range of the test procedure. Using larger samples creates an inaccurate test.

For the molecule `CCCCCCCCCCCCCCCCCC[N+](C)(C)CCC[Si](OC)(OC)OC.[Cl-]` [AMT, N, N-dimethyl-N-Octadecyl-3-(trimethoxysilyl)propanaminium chloride], for the setting “130° C./30 minutes, Table XII”, the “BOILED IN WATER % EXTRACTION” value is 27%. Besides, for the setting “COTTON, boiled vs not boiled, Table IV”, the “% BPB EXTRACTION CHANGE” value is given as −1%. In addition, the “EXTRACTION CHANGE” value (COTTON, boiled vs not boiled, Table VI) turned out to be 0%. Also, where the note is “NYLON, boiled 30 minutes, Table VI”, the “% Extraction @ 595 nm” value was 11%. In addition, the “% BPB EXTRACTION @ 595 nm” value by setting is: (NYLON, boiled, Table IX) 19%; (NYLON, not boiled, Table IX) 85%; (PET, boiled 30 minutes, Table XV) 36%; (PET, not boiled, Table III) 94%. The “Boiling Durability % BPB EXTRACTION @ 595 nm” value (NYLON, not boiled, Table XVII) turned out to be 80%. Besides, the “Strike Rate - % BPB Extraction” value runs as follows: (Nylon, 0.25 grams of fabric) 8.01%; (Nylon, treatment at pH = 11) 45.1%; (PET Staple, treatment at pH = 11) 75.82%; (PET, treatment at pH = 11) 62.57%; (Rayon, 0.25 grams of fabric) 6.94%. Moreover, the “Boiling Durability - % BPB Extraction” value (PET, Boil 30 min., Table XIV) worked out at 17.9%. In addition, the “% EXTRACTION CHANGE” value (PET, boiled vs not boiled, Table XVII) is on record as −64%.
